Test results taken from patent US20110178064A1, “SPIRO CONDENSED […] DERIVATIVES FOR USE AS ANTIBACTERIAL” (A[…]&D, priority 2007, published 2011).

target: Escherichia coli DNA gyrase A/B tetramer (Escherichia coli, UniProt P0AES4+P0AES6); test: DNA gyrase supercoiling activity fluorescence polarisation assay; format: biochemical; settings: not given
Outline: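 Gyrase supercoiling reactions quenched with 40 nM 5′-BODIPY-FL oligodeoxynucleotide triplex probe in pH 3.5 NaCl/sodium acetate buffer; fluorescence anisotropy read after 60 min (485/535 nm).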

Chain of Escherichia coli DNA gyrase A/B tetramer (P0AES4 whole entry, one chain of several): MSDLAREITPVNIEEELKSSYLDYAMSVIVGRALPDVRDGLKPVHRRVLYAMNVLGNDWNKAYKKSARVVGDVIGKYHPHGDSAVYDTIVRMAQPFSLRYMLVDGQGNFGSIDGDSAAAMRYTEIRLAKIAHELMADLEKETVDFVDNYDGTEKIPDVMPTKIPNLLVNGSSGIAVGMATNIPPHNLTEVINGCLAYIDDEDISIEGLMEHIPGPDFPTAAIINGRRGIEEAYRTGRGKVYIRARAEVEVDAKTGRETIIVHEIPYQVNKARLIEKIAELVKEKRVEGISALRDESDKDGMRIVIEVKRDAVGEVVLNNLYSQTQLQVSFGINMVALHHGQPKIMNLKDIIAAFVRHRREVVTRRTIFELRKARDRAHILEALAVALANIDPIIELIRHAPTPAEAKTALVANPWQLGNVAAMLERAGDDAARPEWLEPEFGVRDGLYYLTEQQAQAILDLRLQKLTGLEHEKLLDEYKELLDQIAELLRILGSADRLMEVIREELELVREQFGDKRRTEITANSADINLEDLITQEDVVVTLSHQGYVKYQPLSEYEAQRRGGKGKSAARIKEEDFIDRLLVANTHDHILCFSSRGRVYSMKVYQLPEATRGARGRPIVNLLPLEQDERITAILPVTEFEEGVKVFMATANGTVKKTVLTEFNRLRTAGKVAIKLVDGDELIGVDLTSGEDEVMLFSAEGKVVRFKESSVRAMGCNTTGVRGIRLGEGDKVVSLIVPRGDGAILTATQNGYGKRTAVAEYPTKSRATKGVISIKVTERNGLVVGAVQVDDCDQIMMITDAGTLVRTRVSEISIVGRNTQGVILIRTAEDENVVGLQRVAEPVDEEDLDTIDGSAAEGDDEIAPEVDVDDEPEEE

| SMILES | IC50 [µM] |
| --- | --- |
| COc1nccnc1-c1cnc2c(c1)CC1(C(=O)NC(=O)NC1=O)[C@H]1[C@H](C)O[C@H](C)CN21 (relative stereo) [Example 92, (6aS,7S,9R)-rel-3-(3-Methoxypyrazin-2-yl)-7,9-dimethyl-6a,7,9,10-tetrahydro-2′H,5H-spiro[1,4-oxazino[4,3-a][1,8]naphthyridine-6,5′-pyrimidine]-2′,4′,6′(1′H,3′H)-trione] | 20 |
| C[C@@H]1CN2c3ccc(-c4ccnnc4)nc3CC3(C(=O)NC(=O)NC3=O)[C@H]2[C@H](C)O1 (relative stereo) [Example 95, (2R,4S,4aS)-rel-2,4-Dimethyl-8-(pyridazin-4-yl)-1,2,4,4a-tetrahydro-2′H,6H-spiro[1,4-oxazino[4,3-a][1,5]naphthyridine-5,5′-pyrimidine]-2′,4′,6′(1′H,3′H)-trione] | 2 |
| C[C@@H]1CN2c3cnc(-c4ccnnc4)cc3CC3(C(=O)NC(=O)NC3=O)[C@H]2[C@H](C)O1 (relative stereo) [Example 96, (6aS,7S,9R)-rel-7,9-Dimethyl-3-(pyridazin-4-yl)-6a,7,9,10-tetrahydro-2′H,5H-spiro[1,4-oxazino[4,3-a][1,7]naphthyridine-6,5′-pyrimidine]-2′,4′,6′(1′H,3′H)-trione] | 3 |
| C[C@@H]1CN2c3ncc(-c4ncco4)cc3CC3(C(=O)NC(=O)NC3=O)[C@H]2[C@H](C)O1 (relative stereo) [Example 97, (6aS,7S,9R)-rel-7,9-Dimethyl-3-(1,3-oxazol-2-yl)-6a,7,9,10-tetrahydro-2′H,5H-spiro[1,4-oxazino[4,3-a][1,8]naphthyridine-6,5′-pyrimidine]-2′,4′,6′(1′H,3′H)-trione] | 44 |
| C[C@@H]1CN2c3ccc(-c4ncco4)nc3CC3(C(=O)NC(=O)NC3=O)[C@H]2[C@H](C)O1 (relative stereo) [Example 98, (2R,4S,4aS)-rel-2,4-Dimethyl-8-(1,3-oxazol-2-yl)-1,2,4,4a-tetrahydro-2′H,6H-spiro[1,4-oxazino[4,3-a][1,5]naphthyridine-5,5′-pyrimidine]-2′,4′,6′(1′H,3′H)-trione] | 51 |
| C[C@@H]1CN2c3cnc(-c4ncco4)cc3CC3(C(=O)NC(=O)NC3=O)[C@H]2[C@H](C)O1 (relative stereo) [Example 99, (6aS,7S,9R)-rel-7,9-Dimethyl-3-(1,3-oxazol-2-yl)-6a,7,9,10-tetrahydro-2′H,5H-spiro[1,4-oxazino[4,3-a][1,7]naphthyridine-6,5′-pyrimidine]-2′,4′,6′(1′H,3′H)-trione] | 44 |
| C[C@@H]1CN2c3ncc(-c4cscn4)cc3CC3(C(=O)NC(=O)NC3=O)[C@H]2[C@H](C)O1 (relative stereo) [Example 100, (6aS,7S,9R)-rel-7,9-Dimethyl-3-(1,3-thiazol-4-yl)-6a,7,9,10-tetrahydro-2′H,5H-spiro[1,4-oxazino[4,3-a][1,8]naphthyridine-6,5′-pyrimidine]-2′,4′,6′(1′H,3′H)-trione] | 7 |
| C[C@@H]1CN2c3ccc(-c4cscn4)nc3CC3(C(=O)NC(=O)NC3=O)[C@H]2[C@H](C)O1 (relative stereo) [Example 101, (2R,4S,4aS)-rel-2,4-Dimethyl-8-(1,3-thiazol-4-yl)-1,2,4,4a-tetrahydro-2′H,6H-spiro[1,4-oxazino[4,3-a][1,5]naphthyridine-5,5′-pyrimidine]-2′,4′,6′(1′H,3′H)-trione] | 2 |
| C[C@@H]1CN2c3cnc(-c4cscn4)cc3CC3(C(=O)NC(=O)NC3=O)[C@H]2[C@H](C)O1 (relative stereo) [Example 102, (6aS,7S,9R)-rel-7,9-Dimethyl-3-(1,3-thiazol-4-yl)-6a,7,9,10-tetrahydro-2′H,5H-spiro[1,4-oxazino[4,3-a][1,7]naphthyridine-6,5′-pyrimidine]-2′,4′,6′(1′H,3′H)-trione] | 16 |
| COc1cncc(-c2cnc3c(c2)CC2(C(=O)NC(=O)NC2=O)[C@H]2[C@H](C)O[C@H](C)CN32)n1 (relative stereo) [Example 103, (6aS,7S,9R)-rel-3-(6-Methoxypyrazin-2-yl)-7,9-dimethyl-6a,7,9,10-tetrahydro-2′H,5H-spiro[1,4-oxazino[4,3-a][1,8]naphthyridine-6,5′-pyrimidine]-2′,4′,6′(1′H,3′H)-trione] | 4 |
| COc1cncc(-c2ccc3c(n2)CC2(C(=O)NC(=O)NC2=O)[C@H]2[C@H](C)O[C@H](C)CN32)n1 (relative stereo) [Example 104, (2R,4S,4aS)-rel-8-(6-Methoxypyrazin-2-yl)-2,4-dimethyl-1,2,4,4a-tetrahydro-2′H,6H-spiro[1,4-oxazino[4,3-a][1,5]naphthyridine-5,5′-pyrimidine]-2′,4′,6′(1′H,3′H)-trione] | 22 |
| COc1nc(-c2cnc3c(c2)CC2(C(=O)NC(=O)NC2=O)[C@H]2[C@H](C)O[C@H](C)CN32)cs1 (relative stereo) [Example 107, (6aS,7S,9R)-rel-3-(2-Methoxy-1,3-thiazol-4-yl)-7,9-dimethyl-6a,7,9,10-tetrahydro-2′H,5H-spiro[1,4-oxazino[4,3-a][1,8]naphthyridine-6,5′-pyrimidine]-2′,4′,6′(1′H,3′H)-trione] | 6 |
| Cc1nc(C)c(-c2ccc3c(n2)CC2(C(=O)NC(=O)NC2=O)[C@H]2[C@H](C)O[C@H](C)CN32)s1 (relative stereo) [Example 109, (2R,4S,4aS)-rel-8-(2,4-Dimethyl-1,3-thiazol-5-yl)-2,4-dimethyl-1,2,4,4a-tetrahydro-2′H,6H-spiro[1,4-oxazino[4,3-a][1,5]naphthyridine-5,5′-pyrimidine]-2′,4′,6′(1′H,3′H)-trione] | 14 |
| C[C@@H]1CN2c3ncc(-c4ccc(N5CCOCC5)nc4)cc3CC3(C(=O)NC(=O)NC3=O)[C@H]2[C@H](C)O1 (relative stereo) [Example 111, (6aS,7S,9R)-rel-7,9-Dimethyl-3-[6-(morpholin-4-yl)pyridin-3-yl]-6a,7,9,10-tetrahydro-2′H,5H-spiro[1,4-oxazino[4,3-a][1,8]naphthyridine-6,5′-pyrimidine]-2′,4′,6′(1′H,3′H)-trione] | 23 |
| C[C@@H]1CN2c3cnc(-c4ccc(N5CCOCC5)nc4)cc3CC3(C(=O)NC(=O)NC3=O)[C@H]2[C@H](C)O1 (relative stereo) [Example 112, (6aS,7S,9R)-rel-7,9-Dimethyl-3-[6-(morpholin-4-yl)pyridin-3-yl]-6a,7,9,10-tetrahydro-2′H,5H-spiro[1,4-oxazino[4,3-a][1,7]naphthyridine-6,5′-pyrimidine]-2′,4′,6′(1′H,3′H)-trione] | > 83 |
| C[C@@H]1CN2c3ncc(C#N)cc3CC3(C(=O)NC(=O)NC3=O)[C@H]2[C@H](C)O1 (relative stereo) [Example 113, (6aS,7S,9R)-rel-7,9-Dimethyl-2′,4′,6′-trioxo-1′,3′,4′,6′,6a,7,9,10-octahydro-2′H,5H-spiro[1,4-oxazino[4,3-a][1,8]naphthyridine-6,5′-pyrimidine]-3-carbonitrile] | 22 |
| C[C@@H]1CN2c3c(nc(Br)c(F)c3Cl)CC3(C(=O)NC(=O)NC3=O)[C@H]2[C@H](C)O1 (relative stereo) [Example 114, (2R,4S,4aS)-rel-8-Bromo-10-chloro-9-fluoro-2,4-dimethyl-2,4,4a,6-tetrahydro-1H,1′H-spiro[[1,4]oxazino[4,3-a][1,5]naphthyridine-5,5′-pyrimidine]-2′,4′,6′(3′H)-trione] | 2 |
| C[C@@H]1CN2c3cc(Cl)ncc3CC3(C(=O)NC(=O)NC3=O)[C@H]2[C@H](C)O1 (relative stereo) [Example 115, (2R,4S,4aS)-rel-9-chloro-2,4-dimethyl-1,2,4,4a-tetrahydro-2′H,6H-spiro[1,4-oxazino[4,3-a][1,6]naphthyridine-5,5′-pyrimidine]-2′,4′,6′(1′H,3′H)-trione] | > 20 |
| C[C@@H]1CN2c3cnc(-c4cccs4)cc3CC3(C(=O)NC(=O)NC3=O)[C@H]2[C@H](C)O1 (relative stereo) [Example 116, (6aS,7S,9R)-rel-7,9-dimethyl-3-(thiophen-2-yl)-6a,7,9,10-tetrahydro-1′H,5H-spiro[[1,4]oxazino[4,3-a][1,7]naphthyridine-6,5′-pyrimidine]-2′,4′,6′(3′H)-trione] | 33 |
| C[C@@H]1CN2c3cnc(-c4ccn[nH]4)cc3CC3(C(=O)NC(=O)NC3=O)[C@H]2[C@H](C)O1 (relative stereo) [Example 118, (6aS,7S,9R)-rel-7,9-Dimethyl-3-(1H-pyrazol-5-yl)-6a,7,9,10-tetrahydro-2′H,5H-spiro[1,4-oxazino[4,3-a][1,7]naphthyridine-6,5′-pyrimidine]-2′,4′,6′(1′H,3′H)-trione] | 19 |
| C[C@H]1CN2c3ncc(-c4nnn(C)n4)cc3CC3(C(=O)NC(=O)NC3=O)[C@@H]2[C@@H](C)O1 (relative stereo) [Example 120(a), (6aR,7R,9S)-rel-7,9-Dimethyl-3-(2-methyl-2H-tetrazol-5-yl)-6a,7,9,10-tetrahydro-2′H,5H-spiro[1,4-oxazino[4,3-a][1,8]naphthyridine-6,5′-pyrimidine]-2′,4′,6′(1′H,3′H)-trione] | 12 |

same assay, conditions: E. coli DNA gyrase supercoiling; asterisk: no IC50 obtained at or below the indicated concentration; read-out: IC50

| SMILES | IC50 [µM] |
| --- | --- |
| COc1nccnc1-c1cc2c(cn1)N1C[C@@H](C)O[C@@H](C)[C@@H]1C1(C2)C(=O)NC(=O)NC1=O (relative stereo) [Example 93, (6aS,7S,9R)-rel-3-(3-Methoxypyrazin-2-yl)-7,9-dimethyl-6a,7,9,10-tetrahydro-2′H,5H-spiro[1,4-oxazino[4,3-a][1,7]naphthyridine-6,5′-pyrimidine]-2′,4′,6′(1′H, 3H)-trione] | > 83 |
| C[C@@H]1CN2c3ncc(-c4ccnnc4)cc3CC3(C(=O)NC(=O)NC3=O)[C@H]2[C@H](C)O1 (relative stereo) [Example 94, (6aS,7S,9R)-rel-7,9-Dimethyl-3-(pyridazin-4-yl)-6a,7,9,10-tetrahydro-2′H,5H-spiro[1,4-oxazino[4,3-a][1,8]naphthyridine-6,5′-pyrimidine]-2′,4′,6′(1′H, 3H)-trione] | 7 |
